Assay results reported in paper PMC6148246, “HS-1371, a novel kinase inhibitor of RIP3-mediated necroptosis” (Experimental & Molecular Medicine, 2018).

What was measured:
[1] = molecular target: T1, necrosome complex (Homo sapiens, UniProt Q9Y572); assay: Necrosome complex formation, anti-RIP3 immunoprecipitation in HT-29 cells; assay type: cell-based; conditions: HT-29, 5 μM pretreated 2 h, TSZ 4 h
T1 construct: endogenous in cells; host or cells: HT-29
Protocol: Cells were rinsed in cold phosphate-buffered saline (PBS) and lysed in M2 buffer containing 20 mM Tris at pH 7, 0.5% NP-40, 250 mM NaCl, 3 mM EDTA, 3 mM EGTA, 2 mM DTT, 0.5 mM PMSF, 20 mM β-glycerol phosphate, 1 mM sodium vanadate, and 1 μg/mL leupeptin. The cell extracts were subjected to western blot analysis. For immunoprecipitation, lysates were mixed and precipitated with antibody and protein A-agarose beads overnight or for 4 h at 4 °C. Bound proteins were removed by boiling in SDS and resolved by SDS-PAGE, and immunoblotting was visualized by enhanced chemiluminescence (ECL, Amersham).
Fig. 2 Novel inhibitors can block RIP3 S227 phosphorylation. a Western blotting showing various kinase inhibitor effects on RIP3 S227 auto-phosphorylation. HT-29 cells were treated with four tested kinase inhibitors (1308, 1336, 1338, and 1371, 10 μM) for 9 h. As a control, KK5101 (Trk alpha inhibitor) and HS829 (IKK beta inhibitor) were also treated at a concentration of 10 μM for 9 h. […] HT-29 cells were treated with 4 tested kinase inhibitors for 24 h, and cell viability was analyzed by MTT assay or phase-contrast microscopy. […] Cell lysates were analyzed by immunoblotting. f HT-29 cells were pretreated with Nec-1 (40 μM), DAB (5 μM) or HS-1371 (5 μM) for 2 h and then treated with TSZ for 4 h. […] Immunoprecipitates and total lysates were analyzed by Western blotting

[2] = tested on: HT-29 cells; assay: TRAIL-induced necroptosis in HT-29 cells (immunoblot, MTT); assay type: cell-based
Protocol: HT-29 cells expressing RIP3 shRNA, MLKL shRNA, or non-silencing control were analyzed by western blotting (upper panel), and these cells were treated with TSZ (6 h for immunoblotting, 24 h for cell death assay). Cell lysates were analyzed by immunoblotting (middle panel), and cell viability was analyzed by MTT assay (bottom panel). The results are presented as means ± SEM. *P < 0.05, **P < 0.01, ***P < 0.001. b HS-1371 protected cells not only from TNF-induced necroptosis but also from TRAIL-induced necroptosis. HT-29 cells were pretreated with indicated concentrations of HS-1371 and then treated with TRAIL + Smac + zVAD (6 h for immunoblotting, 24 h for cell death assay). Cell lysates were analyzed by immunoblotting, and cell viability was analyzed by MTT assay or phase-contrast microscopy. The results are presented as means ± SEM. *P < 0.05, **P < 0.01, ***P < 0.001. c, d HS-1371 had no effect on TNF-induced apoptosis. HT-29 cells were pretreated with HS-1371 (5 μM) for 2 h and then treated with TC or TS (TNF + either cycloheximide or SMAC mimetic, hereafter referred to as TC or TS, 6 h for immunoblotting, 24 h (TC) or 36 h (TS) for cell death assay). Cell lysates were analyzed by immunoblotting, and cell viability was analyzed by MTT assay (TC) or CellTiter-Glo Luminescent Cell Viability Assay Kit (TS). The results are presented as means ± SEM. *P < 0.05, **P < 0.01, ***P < 0.001 […]

[3] = tested on: p-MLKL; assay: Phospho-MLKL immunofluorescence in HT-29 cells; assay type: cell-based, human; conditions: HT-29, immunofluorescence
Protocol: HT-29 cells were fixed in 4% paraformaldehyde for 10 min. To stain phospho-MLKL, cells were permeabilized with 0.25% Triton X-100 for 10 min. After incubation in a blocking buffer (10% fetal bovine serum in DPBS) for 30 min, the primary antibody to phospho-MLKL was incubated overnight at 4 °C, and FITC-conjugated secondary antibody (goat anti-rabbit IgG, 1:250, dilution, Invitrogen) was incubated for 1 h at room temperature. A mounting medium containing DAPI (VECTASHIELD, Cat No. 94010, Vector Laboratories) was used for counterstaining. Representative images were taken by confocal microscope.
HT-29 cells were pretreated with four tested inhibitors for 2 h and then treated with TSZ (6 h for immunoblotting, 24 h for cell death assay). Cell lysates were analyzed by immunoblotting, and cell viability was analyzed by MTT assay or phase-contrast microscopy. The results are presented as the means ± SEM. *P < 0.05, **P < 0.01, ***P < 0.001. b Protection of necroptosis by HS-1371 treatment is similar with dabrafenib, which abolished downstream events. HT-29 cells were pretreated with various necroptosis inhibitors and HS-1371 before TSZ treatment. Cell lysates were analyzed by immunoblotting, and cell viability was analyzed by MTT assay (left panel). Cells were stained with phospho-MLKL antibody and analyzed by confocal fluorescence microscopy (middle panel), and cell death was further analyzed by FACS analysis after PI staining (right panel). c HS-1371 protects cells from TNF-induced necroptosis in a dose-dependent manner. HT-29 cells were pretreated with indicated concentrations of HS-1371 and then treated with TSZ (6 h for immunoblotting, 24 h for cell death assay). Cell lysates were analyzed by immunoblotting, and cell viability was analyzed by MTT assay or phase-contrast microscopy. The results are presented as means ± SEM. *P < 0.05, **P < 0.01, ***P < 0.001 TEXT PRINTED IN THE PICTURE: (b) TSZ: 20.7 | (b) TSZ + Nec-1: 5.8 | (b) TSZ + DAB: 5.5 | (b) TSZ + 1371: 6.8 DOUBTS OF THE COPYIST ABOUT THIS PICTURE: Panel b, flow cytometry plots: the red gate numbers are printed without a measure or unit, so none is given / Panel b: the 'Untreated' control plot prints 7.7; left out because it is not a substance

[4] = tested on: L929; assay: TNF plus zVAD-induced necroptosis in L929 cells; assay type: cell-based, mouse
Protocol: Cells were pretreated with DAB or HS-1371 for 2 h and then treated with TSZ (6 h for immunoblotting, 24 h for cell death assay). Cell lysates were analyzed by immunoblotting (left bottom panel), and cell viability was analyzed by MTT assay (right panel). The results are presented as means ± SEM. *P < 0.05, **P < 0.01, ***P < 0.001. c, d HS-1371 had the same effect on mouse cells. L929 (mouse sarcoma, c) and MEF (mouse embryonic fibroblast, d) cells were pretreated with inhibitors and then necroptosis was induced by TNF. Cell lysates were analyzed by immunoblotting (upper panel), and cell viability was analyzed by MTT assay (bottom panel). The results are presented as means ± SEM. *P < 0.05, **P < 0.01, ***P < 0.001

T1 sequence (Q9Y572 whole entry, one chain of several): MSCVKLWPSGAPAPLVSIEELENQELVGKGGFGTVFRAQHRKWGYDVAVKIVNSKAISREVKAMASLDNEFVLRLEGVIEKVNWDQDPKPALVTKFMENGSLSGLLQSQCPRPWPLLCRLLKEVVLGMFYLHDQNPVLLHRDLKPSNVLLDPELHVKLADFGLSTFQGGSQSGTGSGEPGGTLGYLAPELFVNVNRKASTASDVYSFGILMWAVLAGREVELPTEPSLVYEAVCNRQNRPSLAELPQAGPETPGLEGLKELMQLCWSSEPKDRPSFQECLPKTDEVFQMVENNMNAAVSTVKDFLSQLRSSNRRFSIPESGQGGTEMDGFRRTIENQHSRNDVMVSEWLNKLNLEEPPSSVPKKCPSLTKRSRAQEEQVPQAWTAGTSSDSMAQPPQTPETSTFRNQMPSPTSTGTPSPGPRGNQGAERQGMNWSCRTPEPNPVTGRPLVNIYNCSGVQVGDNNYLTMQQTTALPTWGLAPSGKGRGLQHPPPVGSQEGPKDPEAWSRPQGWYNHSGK

Cc1ccc(Oc2ccnc3cc(-c4cnn(C5CCNCC5)c4)ccc23)cc1 [HS-1371, 7-(1-(Piperidin-4-yl)-1H-pyrazol-4-yl)-4-(p-tolyloxy)quinoline]
necrosome complex formation (MLKL recruitment) [1]: blocked necrosome complex formation | TRAIL-induced S227 phosphorylation of RIP3 and RIP3-mediated phosphorylation of MLKL ([2]; HT-29, TRAIL + Smac mimetic + zVAD 6 h, dose-dependent): decreased | TRAIL-induced cytotoxicity ([2]; HT-29, TRAIL + Smac mimetic + zVAD 24 h, MTT): reduction in cytotoxicity | p-MLKL detection / translocation after TSZ [3]: no detection of p-MLKL | TNF plus zVAD-induced necroptosis [4]: prevented
